In ChEMBL document CHEMBL4145608, “Dehydrodiconiferyl Alcohol Inhibits Osteoclast Differentiation and Ovariectomy-Induced Bone Loss through Acting as an Estrogen Receptor Agonist” (J Nat Prod, 2018) one finds inhibition and Activity data, which are given here for one compound.

For test [1], the system named is Mus musculus. The experiment in a line: Anti-osteoporotic activity in Balb/c mouse assessed as inhibition of OVX-induced TRAP mRNA expression level in bone marrow at 25 to 100 mg/kg, ip administered for 4 weeks daily by qRT-PCR method. In kind it is functional, organism-based.
Test [2] has as its system RAW264.7. The experiment in a line: Inhibition of NF-kappaB/p38 MAPK signaling pathway in mouse RAW264.7 cells assessed as reduction in RANKL-induced cathepsin K mRNA level after 24 hrs by qRT-PCR method. Type of test: cell-based.
Test [3] has as its system RAW264.7. As to the kind of experiment: Inhibition of RANKL-induced osteoclast differentiation in mouse RAW264.7 cells harboring ERalpha siRNA assessed as decrease in number of TRAP-positive multinucleated cells at 20 uM after 5 days by microscopy. In kind it is functional, cell-based.
Test [4] concerns RAW264.7. The experiment in a line: Inhibition of RANKL-induced osteoclast differentiation in mouse RAW264.7 cells harboring AMPKalpha1 siRNA assessed as decrease in TRAP mRNA level at 20 uM after 24 hrs by qRT-PCR method. In kind it is functional, cell-based.
The test system of test [5] is RAW264.7. As to the kind of experiment: Inhibition of RANKL-induced osteoclast differentiation in mouse RAW264.7 cells harboring AMPKalpha1 siRNA assessed as decrease in NFATc1 mRNA level at 20 uM after 24 hrs by qRT-PCR method. In kind it is functional, cell-based.
For test [6], the target named is T1, Estrogen receptor (Mus musculus) (UniProt P19785).
T1 sequence (whole entry): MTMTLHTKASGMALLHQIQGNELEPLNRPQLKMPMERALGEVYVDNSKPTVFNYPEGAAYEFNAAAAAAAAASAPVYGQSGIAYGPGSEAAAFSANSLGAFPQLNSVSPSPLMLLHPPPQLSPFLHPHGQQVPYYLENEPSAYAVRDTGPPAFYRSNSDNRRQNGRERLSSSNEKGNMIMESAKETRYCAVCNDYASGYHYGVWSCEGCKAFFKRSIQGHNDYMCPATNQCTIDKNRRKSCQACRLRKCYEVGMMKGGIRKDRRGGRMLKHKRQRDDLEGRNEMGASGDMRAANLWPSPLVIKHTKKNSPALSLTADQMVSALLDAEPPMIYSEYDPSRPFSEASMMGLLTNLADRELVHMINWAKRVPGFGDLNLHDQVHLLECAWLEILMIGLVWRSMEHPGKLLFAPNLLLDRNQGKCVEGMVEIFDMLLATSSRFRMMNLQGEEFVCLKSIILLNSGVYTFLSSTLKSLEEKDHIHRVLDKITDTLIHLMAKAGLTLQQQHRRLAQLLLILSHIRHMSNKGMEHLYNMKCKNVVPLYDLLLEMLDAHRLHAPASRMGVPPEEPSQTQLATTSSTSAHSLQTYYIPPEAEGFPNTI
As to the kind of experiment: Induction of estrogen receptor-mediated AMPKalpha1 activation in mouse RAW264.7 cells at 20 uM in presence of estrogen receptor antagonist fulvestrant. In kind it is cell-based.

Test [7] has as its system RAW264.7. The experiment in a line: Inhibition of RANKL-induced osteoclast differentiation in mouse RAW264.7 cells assessed as decrease in number of TRAP-positive multinucleated cells after 5 days by microscopy. Type of test: functional, cell-based.
The target in test [8] is T2, Estrogen receptor (Homo sapiens) (UniProt P03372).
T2 sequence (whole entry): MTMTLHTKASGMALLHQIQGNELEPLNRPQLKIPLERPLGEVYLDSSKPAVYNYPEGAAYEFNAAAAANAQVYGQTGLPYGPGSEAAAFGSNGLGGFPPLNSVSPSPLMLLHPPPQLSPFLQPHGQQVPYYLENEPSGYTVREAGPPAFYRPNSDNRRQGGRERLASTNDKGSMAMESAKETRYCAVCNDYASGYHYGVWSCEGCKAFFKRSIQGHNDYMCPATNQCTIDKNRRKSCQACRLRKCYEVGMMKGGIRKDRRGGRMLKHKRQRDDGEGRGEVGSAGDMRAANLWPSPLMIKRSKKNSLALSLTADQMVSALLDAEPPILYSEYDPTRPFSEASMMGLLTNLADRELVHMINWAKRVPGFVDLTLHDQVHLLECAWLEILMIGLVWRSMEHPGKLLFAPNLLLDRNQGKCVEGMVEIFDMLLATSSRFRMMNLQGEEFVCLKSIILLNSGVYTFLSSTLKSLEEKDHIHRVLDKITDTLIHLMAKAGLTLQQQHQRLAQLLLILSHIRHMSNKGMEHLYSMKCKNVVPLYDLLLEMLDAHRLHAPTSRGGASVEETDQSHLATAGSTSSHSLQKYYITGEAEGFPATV
As to the kind of experiment: Agonist activity at estrogen receptor (unknown origin) expressed in mouse RAW264.7 cells after 6 hrs by luciferase reporter gene assay. Type of test: cell-based. On the technique in general: Reporter assays use an easily measured gene product as a stand-in for the process of interest.

Test [9] relates to RAW264.7. The experiment in a line: Inhibition of NF-kappaB/p38 MAPK signaling pathway in mouse RAW264.7 cells assessed as reduction in RANKL-induced NFATc1 mRNA level after 24 hrs by qRT-PCR method. Type of test: cell-based. Background: In qPCR the cycle at which signal appears reflects the starting amount.
The subject of test [10] is Mus musculus. The experiment in a line: Anti-osteoporotic activity in Balb/c mouse assessed as inhibition of OVX-mediated decrease in trabecular thickness in femur at 25 to 100 mg/kg, ip administered for 4 weeks daily by microcomputed tomography. Type of test: functional, organism-based.
The test system of test [11] is RAW264.7. The experiment in a line: Inhibition of NF-kappaB/p38 MAPK signaling pathway in mouse RAW264.7 cells assessed as reduction in RANKL-induced c-Fos mRNA level after 24 hrs by qRT-PCR method. In kind it is cell-based.
Test [12] concerns RAW264.7. The experiment in a line: Inhibition of RANKL-induced osteoclast differentiation in mouse RAW264.7 cells harboring ERalpha siRNA assessed as decrease in size of TRAP-positive multinucleated cells at 20 uM after 5 days by microscopy. In kind it is functional, cell-based.
For test [13], the system named is RAW264.7. As to the kind of experiment: Inhibition of RANKL-induced osteoclast differentiation in mouse RAW264.7 cells assessed as decrease in TRAP activity at 20 uM after 5 days in presence of ERbeta antagonist PHTPP by microscopy. Type of test: functional, cell-based.
For test [14], the system named is RAW264.7. The experiment in a line: Inhibition of RANKL-induced osteoclast differentiation in mouse RAW264.7 cells assessed as decrease in size of TRAP-positive multinucleated cells at 20 uM after 5 days in presence of ERalpha antagonist MPP by microscopy. Type of test: functional, cell-based.
In test [15] the test system is RAW264.7. The experiment in a line: Inhibition of RANKL-induced PKA phosphorylation in mouse RAW264.7 cells at 10 to 40 uM after 24 hrs by Western blot analysis. In kind it is cell-based. For orientation: A western blot detects proteins with antibodies after separation by electrophoresis.
Test [16] deals with RAW264.7. The experiment in a line: Inhibition of RANKL-induced osteoclast differentiation in mouse RAW264.7 cells harboring AMPKalpha1 siRNA assessed as decrease in number of TRAP-positive multinucleated cells after 5 days by microscopy. Type of test: functional, cell-based.
Test [17] concerns RAW264.7. As to the kind of experiment: Inhibition of NF-kappaB/p38 MAPK signaling pathway in mouse RAW264.7 cells assessed as reduction in RANKL-induced DC-STAMP mRNA level after 24 hrs by qRT-PCR method. Type of test: cell-based.
In test [18] the target is MAP kinase p38 (Mus musculus) (UniProt P47811+O08911+Q9WUI1+Q9Z1B7). As to the kind of experiment: Inhibition of p38 MAPK signaling pathway in mouse RAW264.7 cells assessed as reduction in RANKL-induced ERK phosphorylation at 10 to 40 uM after 30 mins by Western blot method. In kind it is cell-based.
For test [19], the target named is T1, Estrogen receptor (Mus musculus). As to the kind of experiment: Induction of estrogen receptor-mediated AMPKalpha1 activation in mouse RAW264.7 cells at 20 uM in presence of CAMKKbeta inhibitor STO609. Type of test: cell-based.
Test [20] has as its system RAW264.7. As to the kind of experiment: Inhibition of RANKL-induced osteoclast differentiation in mouse RAW264.7 cells assessed as TRAP activity after 5 days in presence of estrogen receptor antagonist fulvestrant. Type of test: functional, cell-based.

The structures appear in SMILES notation. The source made the active and inactive calls. The calls are words filed in the database; no cut-off is given here.

In the case of `COc1cc(C2Oc3c(OC)cc(/C=C/CO)cc3C2CO)ccc1O` (stereo not given), the inhibition entry with Mus musculus [1], in the test with Mus musculus [10] and with RAW264.7 [13] was “Active” in each case. The inhibition result in the test with RAW264.7 [2], with RAW264.7 [7], in the test with RAW264.7 [9], with RAW264.7 [11] and in the test with RAW264.7 [17] was “Dose-dependent effect” each time. The inhibition result with RAW264.7 [3], with RAW264.7 [4], with RAW264.7 [5], in the test on RAW264.7 [12], with RAW264.7 [14] and in the test on RAW264.7 [15] was “inactive” each time. The inhibition result (with RAW264.7 [16]; in test [18]; in the test on RAW264.7 [20]) was “inactive” in each case. Besides, the result in test [6] was inactive. Besides, the result in test [8] and in [19] was Active.
